Data from paper PMC8304783, “Antiadhesive Properties of Imidazolium Ionic Liquids Based on (−)-Menthol Against Candida spp” (International Journal of Molecular Sciences, 2021).

Key:
Type in all cases: cell-based
C. albicans isolates = assay: Detachment of adherent clinical isolates from polystyrene (isolates taken together); settings: in most cases, 1, 2 and 4 times MIC90
Protocol: (§1) Post-adherence treatment with ILs was performed in a similar manner to that described previously by our team. Candida spp. suspensions were prepared by centrifuging YPD-grown cultures and resuspending fungal mass in PBS to an OD600 = 0.6. Sterile 96-well plates were inoculated with the prepared suspensions and incubated for 2 h at 37 °C to induce fungal adhesion. Afterwards, adherent cells were washed with PBS to remove planktonic cells and treated with ILs (concentrations equivalent to 1, 2 or 4 × MIC90 for each fungi) for 2 h at 37 °C. Then, each well was washed with PBS and adherent cells were fixed with 0.1% CV solution for 5 min, and washed with PBS. Cells were then treated with a solution of isopropanol 0.04 N HCL with 0.1% SDS to permeabilize adherent cells and release the CV dye. The absorbance of CV was measured at 590 nm (ASYS UVM 340 Biogenet). The percentage of cells that were removed was determined in comparison to adherent cells treated with PBS only (designated 100% adhesion).
(§2) The effect of imidazolium ILs based on of (1R,2S,5R)‐(−)‐menthol was evaluated on clinical, fluconazole(FLC)‐resistant and FLC‐sensitive C. albicans isolates. C. albicans Gu4 and Gu5 strains were isolated from a patient before and after fluconazole administration, respectively.
(§3) Azole‐resistance of Gu5 origins in overexpression of CDR1 and CD R2. C. albicans B3 and B4 strains […]

C. albicans Gu4 = assay: Detachment of adherent clinical isolates from polystyrene; settings: isolate Gu4 on polystyrene; regardless of the concentration (1, 2, 4 x MIC)
Protocol: as §1, §2, §3
(§4) Azole‐resistance of B4 results from overexpression of MDR1. The strains were generous gifts from Prof. S. Milewski (Gdańsk, Poland) and Prof. J. Morschhäuser (Wurzburg, Germany). They are originally referenced in: Franz, R., Ruhnke, M. & Morschhäuser, J. Molecular aspects of fluconazole resistance development in Candida albicans. Mycoses 42, 453–458, (1999).
(§5) Table S1 summarizes the minimal inhibitory and fungicidal concentration (MIC90 and MFC, respectively) values of ILs tested against the C. albicans isolates (for ILs structures see section 5.2. in the mai n text). No difference in case of MIC90 values between the strains was observed. […]

C. albicans B4 = assay: as above; settings: isolate B4 on polystyrene; highest concentration (4 x MIC)
Protocol: as §1, §2, §3, §4, §5

C. albicans B3 = assay: as above; settings: isolate B3 on polystyrene; highest concentration (4 x MIC)
Protocol: as §1, §2, §3, §4, §5

Row | SMILES | Influence on adherent properties of C. albicans isolates (C. albicans isolates) | Reduction of adhesion (C. albicans Gu4) | Reduction of adhesion (C. albicans B4) | Reduction of adhesion (C. albicans B3)
1 | CCCCCCCCCn1cc[n+](CO[C@@H]2C[C@H](C)CC[C@H]2C(C)C)c1 [1a, 1-[(1R,2S,5R)-(−)-menthoxymethyl]-3-nonylimidazolium chloride] | did not influence | – | – | –
2 | CCCCCCCCCCn1cc[n+](CO[C@@H]2C[C@H](C)CC[C@H]2C(C)C)c1 [1b, 3-decyl-1-[(1R,2S,5R)-(−)-menthoxymethyl]imidazolium chloride] | – | ~ 20% | ~ 10% | ~ 10%
